These are literature values, as cited in patent publication US20250135196A1, “COMPOSITIONS, SYSTEMS, AND METHODS FOR TREATING CANCER USING TUMOR TREATING FIELDS WITH INHIBITORS OF MIF, MICA, AND/OR MICB” (Brown University, priority 2023, published 2025).

For data set [1], the target named is T1, MIF (Homo sapiens, UniProt P14174).
T1 sequence (P14174 2-115 limits assumed): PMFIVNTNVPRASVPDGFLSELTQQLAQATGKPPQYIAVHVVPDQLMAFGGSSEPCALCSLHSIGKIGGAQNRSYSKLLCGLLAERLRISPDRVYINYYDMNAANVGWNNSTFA
Particulars: tautomerase assay; for fold more potent than ISO-1 (TA): relative to ISO-1; for IC50 / Ki: literature values, reference number in brackets in cell; for Ki: read-out: Ki (TA).

Data set [2] deals with T2, MIF-CD74 (Homo sapiens, UniProt P14174).
T2 sequence (P14174 2-115 limits assumed): T1 sequence (P14174 2-115 limits assumed)
Particulars: binding assay MIF-CD74; for Kd: read-out: Kd (BA).

Turning to `O=C(CC1CC(c2ccc(F)cc2F)=NO1)N1CCOCC1` (stereo not shown) [CPS1-1306], the “fold more potent than ISO-1 (TA)” value in data set [1] is 100-fold more potent than ISO-1 [35] (TA).

Broadly, the IC50 is the concentration at which inhibition is half-maximal. In the case of `COC(=O)CC1CC(c2ccc(O)c(F)c2)=NO1` (stereo not shown) [ISO-66], the IC50 in data set [1] is 1500 nM.

With `CN(C(=O)CC1CC(c2ccc(Cl)cc2)=NO1)C1CCCCC1` (stereo not shown) [CPSI-2705], in data set [1], the “fold more potent than ISO-1 (TA)” value was 2-10-fold more potent than ISO-1 (35) (TA).

As for `Ic1cc(-c2ccccc2)ncn1` [4-IPP, 4-iodo-6-phenylpyrimidine], in data set [1], the IC50 is 200 to 500 nM.

By Ki is commonly meant a dissociation constant, usually derived from enzyme kinetics or from competition with a known ligand. By Kd is commonly meant the equilibrium constant for the complex coming apart. With `O=C(O)c1cccc(Oc2cc(-c3cn(-c4ccc(O)c(F)c4)nn3)nc3ccccc23)c1` [Dziedzic-3bb], the Ki in data set [1] was 57 nM. In addition, the Kd in data set [2] is 71 nM.

As to `COc1ccc(N2Cc3ccc(O)cc3OC2=O)cc1` [NVS-2], in data set [1], the IC50 is 20 nM and the Ki is 27 nM. The Kd in data set [2] is 55 nM.

Take `COc1cccc(Cn2cc(-c3ccc(O)cc3)nn2)c1OC` [Jorgensen-3g]: the IC50 in data set [2] was 900 nM.

Regarding `Cc1ccccc1-c1cc2ccccc2c(=O)o1` [SCD-19], the “inhibition (TA)” value in data set [1] (at concentration of 100 μM) was 100% inhibition at concentration of 100 μM [37] (TA).

In the case of `COC(=O)CC1CC(c2ccc(O)cc2)=NO1` (racemic) [ISO-1], in data set [2] (maximal inhibition), the “Max. inhibition (BA)” value was 40%.

On to `COC(=O)c1cccc(Cn2cc(-c3ccc(O)cc3)nn2)c1` [Jorgensen-3h], for which, in data set [2], the IC50 is 1000 nM.
